The results in this text go back to patent publication US20100028416A1, “DRUG CARRIERS” (Nitto Denko Corporation, priority 2008, published 2010).

The assay deals with HSC-T6 cells. To be noted: 96-well plate, excitation 560 nm, emission 590 nm, FIGS. 8-9, comparison with non-retinoid composition.

Procedure: HSC-T6 cells, which express a vitamin A binding protein receptor, were seeded one day prior to experiment in a 96-well plate (100 μL culture medium per well). […] The solutions were diluted with culture medium and incubated for 15 minutes at room temperature. 15 μL was added to the cells. After incubating the cells in solution, the culture medium was removed. Cells were washed once with DPBS and fresh culture medium was added (100 μL culture medium per well). Absorbance (excitation and emission wavelengths were 560 nm and 590 nm, respectively) was read by a BioTek FLx800 96-well plate fluorescence reader and recorded.

Turning to Texas Red-Dextran-Retinoid, the “cell uptake (absorbance; greater absorbance indicates greater cell uptake)” value is “greater cellular uptake than the oleic acid composition”.
